Reference: patent US20090054329A1, “COMPOSITION WITH DOCOSAPENTAENOIC ACID” (N.V. Nutricia, priority 2005, published 2009)

What was measured:
[1] = test system: intestinal epithelial cell lines T84; test: Permeability for 4 kD FITC dextran (flux) across T84 monolayers; type: cell-based, human; settings: for Permeability (Flux) Increased by IL-4: T84 monolayers, fatty acid 100 μM, 72 hr incubation, IL-4, 4 kDa FITC-dextran; for Effect on increase of permeability caused by cytokines (in words): incubations with cytokines (IL-4), 100 μM, 72 hr
Description: Monolayers (MC) of intestinal epithelial cell lines T84 (American Type Culture Collection (ATTC), Manassas, USA) were cultured on transwell filters (Corning, Costar BV, The Netherlands) allowing both mucosal and serosal sampling and stimulation of human intestinal epithelial cells. Two weeks post confluence the monolayers were incubated in the luminal compartment with polyunsaturated fatty acids DPA (7,10,13,16,19-docosapentaenoic acid, 22:5 n3), AA (arachidonic acid; 5,8,11,14-eicosatetraenoic acid), DHA (cis-4,7,10,13,16,19 docosahexaenoic acid), EPA (eicosapentaenoic acid) or control palmitic (C 16:0) acid (Palm) (Sigma, St. Louis, USA). The latter procedure was chosen to mimic the in vivo administration route of the dietary compounds. Cells were incubated with DPA, AA, DHA, EPA, or palmitic acid for 0, 24, 48 and 72 h at 100 μM.
(§1) Experiments were performed to evaluate basal barrier integrity and cytokine (IL-4) induced barrier disruption. The epithelial barrier function was determined by measuring the transepithelial resistance (TER, Ω.cm^2) by epithelial volt-ohm meter (EVOM; World Precision Instruments, Germany) and permeability for 4 kD FITC dextran (paracellular permeability marker, Sigma, USA). Epithelial permeability for 4 kDa FITC-dextran was determined as follows. Prior to dextran fluxes the medium was refreshed with culture medium without phenol red for one hour followed by addition of 5 μl (stock 100 mg/ml) 4 kDa FITC-dextran to the luminal compartment. After 60 min of incubation 100 μl sample was collected from the serosal compartment and the fluorescent signal measured at excitation wavelength 485 nm and emission 520 nm (FLUOstar Galaxy®, BMG Labtechnologies, USA). FITC-dextran fluxes were calculated as pmol FITC-dextran/cm^2/h. Statistical analyses were performed using the ANOVA (SPSS version 10).

[2] = test system: intestinal epithelial cell lines T84; test: Transepithelial resistance (TER) of T84 monolayers; type: cell-based, human; settings: for Resistance (TER) Disrupted by IL-4 / Resistance (TER) Basal: T84 monolayers, fatty acid 100 μM, 72 hr incubation; for Resistance (TER) Disrupted by IL-4: IL-4 mediated barrier disruption; for Effect on epithelial resistance (in words): both under basal and barrier disruptive conditions, 100 μM, 72 hr; for Effect on barrier integrity and epithelial paracellular permeability (in words): summary statement
Description: as §1, with “Monolayers (MC) of intestinal epithelial cell lines T84 (American Type Culture Collection (ATTC), Manassas, USA) were cultured on transwell filters (Corning, Costar BV, The Netherlands) allowing both mucosal and serosal sampling and stimulation of human intestinal epithelial cells. […] Louis, USA). The latter procedure was chosen to mimic the in vivo administration route of the dietary compounds. […] Experiments” for “Experiments”

MUC-2 expression = settings: MC T84 and CC T84; compared to propionate and butyrate
Description: See also the examples in applicants' co-pending European application no. 04748674.1).

SMILES | Permeability (Flux) Increased by IL-4 [1] [pmol FITC-dextran/cm^2/h] | Effect on increase of permeability caused by cytokines (in words) [1] | Resistance (TER) Disrupted by IL-4 [2] | Resistance (TER) Basal [2] | Effect on epithelial resistance (in words) [2] | Effect on barrier integrity and epithelial paracellular permeability (in words) [2] | Stimulation of MUC-2 expression (mucus production) (MUC-2 expression)
CCCCCC=CCC=CCC=CCC=CCCCC(=O)O [AA, 5,8,11,14-eicosatetraenoic acid] | 273 ± 76 | effectively reduced | 337 ± 13 Ω.cm^2 | 634 ± 29 Ω.cm^2 | improve epithelial resistance |  | 
CCC=CCC=CCC=CCC=CCC=CC/C=C\CCC(=O)O [DHA, cis-4,7,10,13,16,19 docosahexaenoic acid] | 304 ± 75 | effectively reduced | 328 ± 7 Ω.cm^2 | 584 ± 50 Ω.cm^2 | improve epithelial resistance |  | 
CCC=CCC=CCC=CCC=CCC=CCCCCCC(=O)O [DPA, 7,10,13,16,19-docosapentaenoic acid] | 216 ± 123 | effectively reduced | 368 ± 4 Ω.cm^2 | 605 ± 27 Ω.cm^2 | improve epithelial resistance | effectively improves barrier integrity and reduces epithelial paracellular permeability | 
CC/C=C\C/C=C\C/C=C\C/C=C\C/C=C\CCCC(=O)O [EPA, eicosapentaenoic acid] | 236 ± 145 |  | 375 ± 9 Ω.cm^2 | 584 ± 7 Ω.cm^2 |  |  | 
CCCCCCCCCCCCCCCC(=O)O [Palmitic acid, palmitic acid] | 646 ± 106 | not | 272 ± 11 Ω.cm^2 | 496 ± 50 Ω.cm^2 | not effective |  | 
CC(=O)O [acetate] |  |  |  |  |  |  | more potent in stimulating MUC-2 expression
CCCCC/C=C\C/C=C\CCCCCCCC(=O)O [linoleic acid] |  |  |  |  |  | ineffective | 
